In patent US20010016952A1, “Pathogenesis of cardiomyopathy” (priority 1999, published 2001):
Entries after “also recorded” stand apart in the source; their conditions may differ.

Columns and labels:
Type in all cases: in vivo, mouse
[1] = system: wild type or Sgca-null mice; assay: Treadmill exercise of wild type or Sgca-null mice after Nicorandil; details: after administration of Nicorandil
Procedure: (§1) Treadmill exercise. […] Animals were exercised at 12-17 m/min for about 10 min and for 25-30 m/min for the remaining 50 min. If an animal became exhausted, the shock bar of this lane was turned off and the animal was allowed to rest at the back of the treadmill for a short period of time. Wild type (n=20), Sgca- (n=20) and Sgcd-null mice (n=42) were divided in approximately equal numbers of male and females. All mice were injected with Evans blue dye (0.5 mg EBD/0.05 ml PBS) intraperitoneally 8 hr before the exercise. Animals were injected with 50 μl of this solution per 10-g body weight. All surviving animals were kept alive for 36-48 hr and serial sections of cardiac muscle were studied for Evans blue uptake and for histopathological signs of necrosis by using routine H&E technique. The effect of Nicorandil treatment on treadmill performance in wild type (n=6), Sgca- (n=6) and Sgcd-null mice (n=20) was studied after 3 days of intraperitoneal injection of Nicorandil at a dose of 1 mg/kg body weight twice a day. Quantification of Evans blue positive stained areas in sections of cardiac muscle from Sgca- and Sgcd-null mice (n=20, each group) was done by using the Scion image program. The percentage of positive stained areas was calculated by dividing the area of staining by the total area of the analyzed heart section.

Sgcd-null mice [2] = assay: Treadmill exercise of Sgcd-null mice with Evans blue dye uptake and H&E histopathology of cardiac muscle
Procedure: Treadmill exercise is one of the primary methods used clinically to induce cardiovascular stress in human and animals (Fewell et al., Am. J. Physiol. 273: H1595-H1605 (1997)) and is used to detect cardiovascular abnormalities (e.g. coronary artery dysfunction) that may not be readily apparent at rest. […] All mice were injected with Evans blue dye (EBD) 8 hr before the exercise. EBD is a small molecular mass tracer that tightly complexes with serum albumin. Normally, this is a membrane impermeable molecule, but if the sarcolemma integrity is compromised this dye readily penetrates into the cytoplasm of muscle fibers (Matsuda et al., J. Biochem. (Tokyo) 118: 959-964 (1995); Straub et al., J. Cell Biol. 139: 375-385 (1997)). EBD uptake as well as routine histopathology was examined in the cardiac muscle.
as §1, with “All surviving animals were kept alive for 36-48 hr and serial sections of cardiac muscle were studied for Evans blue uptake and for histopathological signs of necrosis by using routine H&E technique.” left out

Sgcd-null mice [3] = assay: Microfil perfusion of coronary arteries
Description: The Microfil® perfusion technique was used in vivo in order to determine whether disruption of the SG-SSPN complex in smooth muscle of coronary arteries indeed leads to vascular perfusion abnormalities. Wild type, Sgca-null and Sgcd-null mice at the age of 2-6 months were perfused, and cleared sections of the heart were visualized using trans-illumination with low-power magnification. The coronary microvessels were distributed normally and were smoothly tapered in both wild type and Sgca-null mice. […] Pre- and poststenotic dilation as an appearance of microaneurysm was frequently associated with these constrictions. Extensive areas of focal vascular lumen narrowing and a generalized sparseness of perfusion were observed. […] Quantification of vascular abnormalities in Sgcd-null mice at different ages were determined by calculating the mean numbers of abnormal vessels ±SEM in 10 nonadjacent microscopic fields at a magnification of 10×. No lesions were detected in Sgca-null and wild type mice.
Microfil® perfusion. In order to study coronary microvascular perfusion mice were anesthetized with Phenobarbital 75 mg/kg body weight and a bilateral sternum incision was performed to expose the left atrium. 1-1.5 ml of Microfil®, a liquid silicon rubber (Flow tech, Carver, Mass.) was perfused into the left atrium. The heart continued beating for about 1 min and after contraction stopped the heart was rapidly excised and cured on ice for about 10 min. […] Microvascular perfusion was visualized with both epi- and tans-illumination and examined under low power magnification (×10-20). the vascular irregularities in Sgcd-null mice at different ages (2, 4, and 6 months) were quantified by counting the number of abnormal individual vessel segments in 10 nonadjacent microscopic field using a low magnification (10×) and the mean number of abnormal vessels were calculated for each mouse. An average number of abnormal vessels ±SEM were then calculated for each age group. Vessels segments with more than one abnormality were only counted once.

Sgcd-null mice [4] = assay: Systemic blood pressure after Nicorandil; details: at the dose given
[5] = Sgcd-null mice after administration of Nicorandil

O=C(NCCO[N+](=O)[O-])c1cccnc1 [Nicorandil]
general behavior during exercise and cardiac muscle abnormalities [1]: No alteration of the general behavior during exercise or any cardiac muscle abnormalities was observed | EBD uptake in cardiac muscle (Sgcd-null mice [2]; 2 months old exercised Sgcd-null mice, intraperitoneal Nicorandil for 3 days prior to the exercise): No EBD uptake was observed | development of multiple myocardial ischemic lesions (Sgcd-null mice [2]; Sgcd-null mice (n=20), treadmill exercise, Nicorandil intraperitoneal 1 mg/kg body weight twice a day for 3 days prior to exercise): prevented mortality and the development of multiple myocardial lesions; also recorded: prevent the development of multiple myocardial ischemic lesions in all Sgcd-null mice | mortality in treadmill stressed mice (Sgcd-null mice [2]; Sgcd-null mice, Nicorandil given prior to the application of physical stress): prevented mortality | constrictions and focal luminal narrowing of the coronary microvascular bed (perfusion studies) (Sgcd-null mice [3]; Nicorandil treated Sgcd-null mice): free of constrictions and focal luminal narrowing | density of the vasculature (Microfil perfusion) (Sgcd-null mice [3]; [5]): overall greater density of the vasculature | vascular constrictions of coronary arteries (Microfil perfusion) (Sgcd-null mice [3]; [5]): no evidence of vascular constrictions | systemic blood pressure (Sgcd-null mice [4]): did not lower the systemic blood pressure
